From publication PMC10223284, “Category-Based Toxicokinetic Evaluations of Data-Poor Per- and Polyfluoroalkyl Substances (PFAS) using Gas Chromatography Coupled with Mass Spectrometry” (Toxics, 2023)
“And” between values parts separate entries of the source, which are not always exact repeats. Equal entries are not always repeated. Where two headings read alike, the source gives them in different places.

Tests used:
[1] = tested on: human plasma
[2] = tested on: human plasma; remark: listed apart in the source
[3] = Abiotic loss in negative controls of the hepatocyte clearance assay (cell-free media, metabolically inactivated hepatocytes); type: in vitro ADME
In short: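 Test compound at 1 μM incubated at 37 °C with shaking in complete William's medium E, either cell-free or with metabolically inactivated hepatocytes, then quenched with ice-cold acetonitrile for quantitative analysis.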

[4] = in vitro; details: both, human, plasma
[5] = tested on: human plasma; test: Ultracentrifugation (UC) plasma protein binding assay, fraction unbound in plasma (fup)
[6] = tested on: human primary cells; details: cited from earlier work
[7] = Hepatic metabolic stability (hepatocyte clearance) assay, substrate depletion; type: in vitro ADME, human; details: both sexes, human, hepatocytes
In short: (§1)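 Pooled 50-donor human cryopreserved hepatocytes (50,000 cells/100 μL) incubated with 1 μM compound at 37 °C with shaking. Parent loss quantified against internal standards over time to T240 in triplicate; T½ and Clint (μL/min/million cells) from ln concentration vs time, corrected for abiotic loss in cell-free and inactivated-hepatocyte controls.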

[8] = tested on: pooled human cryopreserved primary hepatocyte suspensions; test: as above; type: in vitro ADME; details: for Linear Regression Results, Best-Fit Values, Slope: hepatocyte time course
In short: as §1

[9] = tested on: human plasma; test: Chemical stability in plasma over the UC assay time course (T5hr/T1hr)
[10] = In vitro-in vivo extrapolation (IVIVE) to Css and administered equivalent dose (AED); parameters: species or system human; details: for Clhep: IVIVE, hepatocyte Clint scaled to whole-liver clearance; for AED: administered equivalent dose from LOEC and Css; for Fub: fub=fup/(B:P), Fub set to 1 if needed; for CLint: scaled with HPGL 110 mill cells/g, Vl 1596 g
In short: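 Measured plasma protein binding (fup) and hepatocyte Clint served as IVIVE inputs to estimate human steady-state plasma concentration (Css). fup was converted to blood unbound fraction using blood:plasma partitioning, and Clint was scaled to whole-liver clearance (L/h). AEDs were derived by combining Css with published in vitro lowest-observed effective concentrations.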

[11] = flag for stability failure in hepatocyte clearance assay controls (1 or Fst = fail, 0 = pass)
[12] = Fraction Unbound (fu), Run-specific Avg
[13] = both, human, plasma, 5 h, 10 μM
[14] = BioSeek lowest-observed effect concentration used for AED
[15] = minimum lowest-observed effect concentration, BioSeek platform
[16] = hepatocyte incubation, Rep 1-3, start conc 1000 nM
[17] = Assuming 1 mg/kg/day dose rate, BW 70 kg
[18] = human steady-state plasma concentration, assuming 1 mg/kg/day dosage
[19] = heat treated hepatocytes control, 0 vs 240 min
[20] = heat treated hepatocytes, Rep 1-3

## C=C(C)C(=O)OCCC(F)(F)C(F)(F)C(F)(F)C(F)(F)C(F)(F)C(F)(F)C(F)(F)C(F)(F)F [8:2 Fluorotelomer methacrylate]
[1]
  Fup.Med: 0.0461
  Fup.point: 0.0503
[1]; human, plasma
  Mean fu: 0.09
[2]
  Fstable.Med: 0.0797
  Unstable: Y
[2]; human, plasma
  % remaining_PPB: 66%
  PPB_Stab_Fail: 0
[3]; [11]
  Hep_Stab_Fail: 1

## COC(=O)C(F)(F)C(F)(F)OC(F)(C(F)(F)F)C(F)(F)OC(F)=C(F)F (stereo not drawn) [Methyl perfluoro(3-(1-ethenyloxypropan-2-yloxy)propanoate)]
[1]; both, human, 5 h, 10 μM
  Aqueous Fraction, Run-specific Avg: 200.27
  Fup.Med: 0.0161
  Fup.point: 0.0235
[4]; [12]
  fraction unbound at 5 h, 10 μM: 0.0232
[4]; Mean Fu
  fraction unbound at 5 h, 10 μM: 0.023
[2]
  Unstable: Y
[2]; both, human, 1 h, 10 μM
  Time 1 hr, Run-specific Avg: 11859.81
[2]; both, human, 5 h, 10 μM
  Fstable.Med: 0.224
  Mean Stability: 0.836
  Stability (T5hr/ T1hr), Run-specific Avg: 0.726
  Time 5 hr, Run-specific Avg: 8614.65
[2]; [13]
  PPB_Stab_Fail: 1
[3]; both, human, 120 min, 1 μM
  Hep_Stab_Fail: 1

## NC(=O)C(F)(F)C(F)(F)C(F)(F)C(F)(F)C(N)=O [Octafluoroadipamide]
[4]; Fraction Unbound (fu), Run-specific Avg, run-specific average
  fraction unbound: 0.67
[4]; Fraction Unbound (fu), replicate A, individual replicate A of the UC run dated in c8
  fraction unbound: 0.704
[4]; Fraction Unbound (fu), replicate B, individual replicate B of the UC run dated in c8
  fraction unbound: 0.633
[4]; Fraction Unbound (fu), replicate C, individual replicate C of the UC run dated in c8
  fraction unbound: 0.732
[4]; Mean Fu (fraction unbound), mean over all UC runs and replicates, human plasma
  fraction unbound: 0.82
[4]; Mean fu, fraction unbound in human plasma, ultracentrifugation, some values based on eLOQ
  fraction unbound: 0.82
[5]; human plasma, 10 μM, ultracentrifugation, 37 °C
  fup: 0.8201
[5]; median fraction unbound in plasma, UC assay Level4
  Fup.Med: 0.864
[5]; point estimate of fraction unbound in plasma, UC assay Level4
  Fup.point: 0.834
[6]; [14]
  LOEC: 2.00 µM
[6]; [15]
  LOEC: 2 µM
[7]; background-subtracted, read-out: Bkgd-Sub Clearance (µL/min/106 hepatocytes)
  hepatocyte CLint at 1 μM: 2.95 µL/min/1e6 cells
[7]; pooled human hepatocyte suspensions, 1 μM, read-out: In Vitro Clint
  hepatocyte CLint at 1 μM: 2.95 µL/min/1e6 cells
[7]; unadjusted hepatocyte intrinsic clearance, read-out: Unadj in vitro Clint
  hepatocyte CLint at 1 μM: 5.29 µL/min/1e6 cells
[7]; hepatocyte time course, NS = slope not significant, read-out: Linear Regression Results, Best-Fit Values, Clearance
  hepatocyte CLint at 1 μM: 5.29 µL/min/1e6 cells
[7]; hepatocyte time course, NS = slope not significant, read-out: Linear Regression Results, Best-Fit Values, Half Life
  half-life at 1 μM: 262 min
[8]; [16]
  Concentration (nM), Time 0 min: 263.339 nM and 217.701 nM and 209.817 nM
  Concentration (nM), Time 15 min: 291.912 nM and 225.036 nM and 414.445 nM
  Concentration (nM), Time 30 min: 391.931 nM and 314.083 nM and 336.529 nM
  Concentration (nM), Time 60 min: 437.175 nM and 457.948 nM and 302.199 nM
  Concentration (nM), Time 120 min: 293.394 nM and 338.799 nM and 278.045 nM
[8]
  Linear Regression Results, Best-Fit Values, Slope: -0.002646
[9]; flag for stability failure in the plasma protein binding assay (1 = fail, 0 = pass)
  PPB_Stab_Fail: 0
[9]; mean over all UC runs and replicates, human plasma
  Mean Stability (T5hr/T1hr): 0.977
[9]; median fraction stable in plasma, UC assay Level4
  Fstable.Med: 0.546
[9]; run-specific average
  Stability (T5hr/ T1hr), Run-specific Avg: 0.982
[10]; [17]
  Css: 0.10 mg/L and 0.34 uM
[10]
  Clhep: 23.099 L/h
  AED: 5.8401 mg/kg/day
  Fub: 1
  CLint: 517902 µL/min
[10]; [18]
  Css: 0.34 µM
[3]; both sexes, human, heat treated hepatocytes control, 0 vs 240 min, read-out: HT BkgdCl, Half Life
  half-life at 1 μM: 458 min
[3]; buffer, no cells control, 0 vs 240 min, read-out: No Cells BkgdCl, Half Life
  half-life at 1 μM: 593 min
[3]; [11]
  Hep_Stab_Fail: 0
[3]; [19]
  HT BkgdCl, Slope: -0.001514
[3]; [20]
  Negative Controls, Heat Treated (HT), concentration at 0 min: 209.171 nM and 207.599 nM and 206.567 nM
  Negative Controls, Heat Treated (HT), concentration at 240 min: 153.885 nM and 136.838 nM and 143.186 nM
[3]; no cells control, 0 vs 240 min
  No Cells BkgdCl, Slope: -0.00117
[3]; no cells, Rep 1-3
  Negative Controls, No cells (NC), concentration at 0 min: 214.709 nM and 240.687 nM and 228.618 nM
  Negative Controls, No cells (NC), concentration at 240 min: 175.164 nM and 151.709 nM and 191.604 nM

## NC(=O)C(F)(F)C(F)(F)F [Pentafluoropropionamide]
[1]; both, human, 5 h, 10 μM
  Fup.Med: 0.754
  Fup.point: 0.789
[4]; [12]
  fraction unbound at 5 h, 10 μM: 0.81
[4]; Fraction Unbound (fu), replicates A, B, C
  fraction unbound at 5 h, 10 μM: 0.788
[4]; Mean Fu
  fraction unbound at 5 h, 10 μM: 0.809
[4]; Mean fu
  fraction unbound at 5 h, 10 μM: 0.809
[6]; [14]
  LOEC: 20.00 µM
[6]; [15]
  LOEC: 20 µM
[2]
  Unstable: Y
[2]; both, human, 5 h, 10 μM
  Fstable.Med: 0.19
  Mean Stability: 0.711
  Stability (T5hr/ T1hr), Run-specific Avg: 0.719
[2]; [13]
  PPB_Stab_Fail: 0
[8]; both, human, 120 min, 1 μM
  Concentration (nM), Time 120 min: 809.577 nM
[8]; both, human, hepatocytes, 1 μM
  In Vitro Clint: 0.00 μL/min/10^6 cells
  in vitro CLint: 0 mL/min/106 cells
[8]
  Linear Regression Results, Best-Fit Values, Slope: -0.00227
[8]; human, hepatocytes
  Bkgd-Sub Clearance (µL/min/106 hepatocytes): 0.00 µL/min/106 hepatocytes
  Bkgd_adj_Clint: 0.00
  Unadj Clint: 0.00
  Unadj in vitro Clint: 0.00
  clearance rate in hepatocytes: no clearance
[8]; human, s9
  Clint.1.Med: 0
[10]; [17]
  Css: 0.44 mg/L and 2.69 uM
[10]
  Clhep: 0.000 L/h
  AED: 7.4314 mg/kg/day
  Fub: 1
  CLint: 0 µL/min
[10]; [18]
  Css: 2.69 µM
[10]; human steady-state plasma concentration, assuming 1 mg/kg/day dosage, listed as pentafluoropropionamide
  Css: 2.1 to 2.7 µM
[3]; 1 μM
  No Cells BkgdCl, Clearance: 7.66
[3]; both sexes, human, hepatocytes
  half-life at 1 μM: 219 min
[3]; both, human, 1 μM
  HT BkgdCl, Clearance: 6.324
[3]; both, human, 120 min, 1 μM
  Hep_Stab_Fail: 0
[3]; buffer
  half-life at 1 μM: 181 min
[3]; [19]
  HT BkgdCl, Slope: -0.003162
[3]; no cells control, 0 vs 240 min
  No Cells BkgdCl, Slope: -0.00383
